From ChEMBL document CHEMBL5042533, “Structural Optimization and Structure-Activity Relationship Studies of 6,6-Dimethyl-4-(phenylamino)-6H-pyrimido[5,4-b][1,4]oxazin-7(8H)-one Derivatives as A New Class of Potent Inhibitors of Pan-Trk and Their Drug-Resistant Mutants” (J Med Chem, 2022)

What was measured:
BaF3 [1] = assay: cells; details: Mus musculus
Description: Cytotoxicity against mouse BaF3 cells harboring TEL fused TrkC G613R mutant assessed as inhibition of cell growth by MTT assay

[2] = biological target: BDNF/NT-3 growth factors receptor (Homo sapiens, UniProt Q16620); assay: Inhibition of wild type TrkB (unknown origin) using poly(Glu: Tyr) as substrate preincubated for 15 mins followed by substrate addition and further incubated for 30 mins in presence of [gamma-33P]ATP by scintillation counting method
BDNF/NT-3 growth factors receptor, sequence (Q16620 whole entry): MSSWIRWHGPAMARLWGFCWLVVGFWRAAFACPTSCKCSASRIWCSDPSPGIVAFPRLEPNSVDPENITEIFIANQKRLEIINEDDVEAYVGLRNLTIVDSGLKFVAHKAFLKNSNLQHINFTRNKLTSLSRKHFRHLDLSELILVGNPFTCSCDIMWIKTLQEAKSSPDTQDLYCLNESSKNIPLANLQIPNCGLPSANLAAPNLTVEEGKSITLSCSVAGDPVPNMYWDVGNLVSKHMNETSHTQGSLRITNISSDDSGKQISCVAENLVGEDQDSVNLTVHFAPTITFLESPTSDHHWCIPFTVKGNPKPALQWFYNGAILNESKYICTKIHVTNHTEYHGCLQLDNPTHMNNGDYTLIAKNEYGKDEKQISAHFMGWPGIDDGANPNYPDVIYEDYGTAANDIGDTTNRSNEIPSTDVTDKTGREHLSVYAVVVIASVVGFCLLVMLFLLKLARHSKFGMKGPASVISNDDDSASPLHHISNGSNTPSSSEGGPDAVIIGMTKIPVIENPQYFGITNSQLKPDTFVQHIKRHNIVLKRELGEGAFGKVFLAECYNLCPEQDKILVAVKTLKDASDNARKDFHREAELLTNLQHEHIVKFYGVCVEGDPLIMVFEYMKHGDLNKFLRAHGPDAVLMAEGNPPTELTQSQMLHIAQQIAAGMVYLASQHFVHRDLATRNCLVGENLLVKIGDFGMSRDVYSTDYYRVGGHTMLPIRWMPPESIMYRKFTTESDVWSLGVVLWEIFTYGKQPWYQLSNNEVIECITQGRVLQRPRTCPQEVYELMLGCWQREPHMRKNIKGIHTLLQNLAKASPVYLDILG

[3] = biological target: High affinity nerve growth factor receptor (Homo sapiens, UniProt P04629); assay: Inhibition of wild type TrkA (unknown origin) using poly(Glu: Tyr) as substrate preincubated for 15 mins followed by substrate addition and further incubated for 30 mins in presence of [gamma-33P]ATP by scintillation counting method
High affinity nerve growth factor receptor, sequence (P04629 whole entry): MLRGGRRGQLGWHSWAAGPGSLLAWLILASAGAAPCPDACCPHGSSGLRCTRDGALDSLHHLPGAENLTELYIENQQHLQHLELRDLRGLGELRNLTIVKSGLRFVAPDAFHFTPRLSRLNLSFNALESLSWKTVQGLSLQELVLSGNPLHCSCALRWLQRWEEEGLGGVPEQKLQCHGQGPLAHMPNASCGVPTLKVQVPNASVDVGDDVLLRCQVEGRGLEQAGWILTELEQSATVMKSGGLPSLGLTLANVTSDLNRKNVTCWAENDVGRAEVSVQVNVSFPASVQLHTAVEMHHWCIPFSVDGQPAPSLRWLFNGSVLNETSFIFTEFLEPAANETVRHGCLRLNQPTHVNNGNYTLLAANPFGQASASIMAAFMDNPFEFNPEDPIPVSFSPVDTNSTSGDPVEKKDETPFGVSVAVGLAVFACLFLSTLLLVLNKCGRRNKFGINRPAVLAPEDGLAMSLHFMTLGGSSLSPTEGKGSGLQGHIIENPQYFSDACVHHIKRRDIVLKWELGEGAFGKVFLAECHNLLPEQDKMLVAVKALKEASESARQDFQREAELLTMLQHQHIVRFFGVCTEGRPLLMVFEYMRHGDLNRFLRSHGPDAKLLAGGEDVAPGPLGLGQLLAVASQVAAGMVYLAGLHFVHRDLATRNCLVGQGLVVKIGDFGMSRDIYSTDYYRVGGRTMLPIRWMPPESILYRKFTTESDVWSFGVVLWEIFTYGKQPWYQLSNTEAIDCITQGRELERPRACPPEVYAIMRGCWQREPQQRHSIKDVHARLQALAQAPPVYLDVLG

BaF3 [4] = assay: cells; details: Mus musculus, BaF3, 72 h
Description: Cytotoxicity against mouse BaF3 cells expressing CD74 fused TrkA assessed as inhibition of cell growth incubated for 3 days by CCK-8 assay

BaF3 [5] = assay: cells; details: Mus musculus, BaF3, 72 h; remark: listed apart in the source
Description: Cytotoxicity against mouse BaF3 cells expressing TEL fused TrkA assessed as inhibition of cell growth incubated for 3 days by CCK-8 assay

BaF3 [6] = assay: cells; details: Mus musculus, BaF3, 72 h; remark: listed apart in the source
Description: Cytotoxicity against mouse BaF3 cells expressing LMNA fused TrkA G667S mutant assessed as inhibition of cell growth incubated for 3 days by CCK-8 assay

BaF3 [7] = assay: Cytotoxicity against mouse BaF3 cells expressing LMNA fused TrkA F589L mutant assessed as inhibition of cell growth incubated for 3 days by CCK-8 assay; type: functional, cell-based; details: BaF3, 72 h
in vitro = details: mouse, BaF3 cells
Description: Cytotoxicity against mouse BaF3 assessed as inhibition of cell growth incubated for 3 days by CCK-8 assay

BaF3 [8] = assay: cells; details: Mus musculus, BaF3, 72 h; remark: listed apart in the source
Description: Cytotoxicity against mouse BaF3 cells expressing TEL fused TrkC G696C assessed as inhibition of cell growth incubated for 3 days by CCK-8 assay

BaF3 [9] = assay: cells; details: Mus musculus, BaF3, 72 h; remark: listed apart in the source
cells = details: Homo sapiens, KM12-Luc, 72 h
Description: Cytotoxicity against human KM12-Luc cells expressing TPM3 fused TrkA assessed as inhibition of cell growth incubated for 3 days by CCK-8 assay

BaF3 [10] = assay: cells; details: Mus musculus, BaF3, 72 h; remark: listed apart in the source
Description: Cytotoxicity against mouse BaF3 cells expressing TEL fused TrkC G623R assessed as inhibition of cell growth incubated for 3 days by CCK-8 assay

BaF3 [11] = assay: cells; details: Mus musculus, BaF3, 72 h; remark: listed apart in the source
Description: Cytotoxicity against mouse BaF3 cells expressing TEL fused TrkC assessed as inhibition of cell growth incubated for 3 days by CCK-8 assay

BaF3 [12] = assay: cells; details: Mus musculus, BaF3, 72 h; remark: listed apart in the source

Row | Structure (SMILES) | IC50 (BaF3 [1]) [nM] | IC50 [2] [nM] | IC50 [3] [nM] | further results
1 | Cc1cc(NC(=O)Nc2cc(C(C)(C)C)nn2-c2c(F)c(F)c(F)c(F)c2F)ccc1Nc1ncnc2c1OC(C)(C)C(=O)N2 | 740 | 42 | 52 | 
2 | CC1(C)Oc2c(ncnc2Nc2ccc(NC(=O)Nc3cccc(C(F)(F)F)c3)cc2)NC1=O | 4020 | 17 |  | 
3 | CC1(C)Oc2c(ncnc2Nc2ccc(NC(=O)Nc3ccc(C#N)cc3)cc2)NC1=O |  | > 10000 | > 10000 | 
4 | CC(C)(C)NC(=O)Nc1ccc(Nc2ncnc3c2OC(C)(C)C(=O)N3)cc1 |  | > 10000 | > 10000 | 
5 | CCNC(=O)Nc1ccc(Nc2ncnc3c2OC(C)(C)C(=O)N3)cc1 |  | > 10000 | > 10000 | 
6 | CC1(C)Oc2c(ncnc2Nc2ccc(NC(=O)Nc3cc(C(C)(C)C)no3)cc2)NC1=O | 6520 | 48 | 111 | 
7 | CC1(C)Oc2c(ncnc2Nc2ccc(NC(=O)Nc3cc(C(F)(F)F)cc(C(F)(F)F)c3)cc2)NC1=O | 5080 | 202 | 100 | 
8 | CSc1cc(Nc2ncnc3c2OC(C)(C)C(=O)N3)ccc1NC(=O)Nc1cc(C(C)(C)C)nn1-c1ccccc1 | 230 | 106 | 89 | 
9 | CC1(C)Oc2c(ncnc2Nc2cccc(NC(=O)Nc3cc(C(C)(C)C)nn3-c3ccccc3)c2)NC1=O | > 10000 | 342 |  | 
10 | C=CCNC(=O)Nc1ccc(Nc2ncnc3c2OC(C)(C)C(=O)N3)cc1 |  | > 10000 | > 10000 | 
11 | CC1(C)Oc2c(ncnc2Nc2ccc(NC(=O)Nc3ccc(F)c(F)c3)cc2)NC1=O |  | > 10000 | > 10000 | 
12 | Cc1cc(NC(=O)Nc2cc(C(C)(C)C)nn2-c2ccccc2F)ccc1Nc1ncnc2c1OC(C)(C)C(=O)N2 | 3270 | 15 | 20 | 
13 | COc1cc(Nc2ncnc3c2OC(C)(C)C(=O)N3)ccc1NC(=O)Nc1cc(C(C)(C)C)nn1-c1ccccc1 | 978 | 10 | 38 | 
14 | Cc1cc(NC(=O)Nc2cc(C(C)(C)C)nn2-c2cccc(F)c2)ccc1Nc1ncnc2c1OC(C)(C)C(=O)N2 | 1140 | 14 | 13 | 
15 | Cc1cc(NC(=O)Nc2cc(C(C)(C)C)nn2-c2ccc(OC(F)(F)F)cc2)ccc1Nc1ncnc2c1OC(C)(C)C(=O)N2 | 86 | 40 | 46 | 
16 | CC(C)n1nc(C(C)(C)C)cc1NC(=O)Nc1ccc(Nc2ncnc3c2OC(C)(C)C(=O)N3)cc1 | > 10000 | > 10000 | > 10000 | 
17 | Cc1cc(NC(=O)Nc2cc(C(C)(C)C)nn2-c2ccc3ccccc3c2)ccc1Nc1ncnc2c1OC(C)(C)C(=O)N2 | > 10000 | 245 | 41 | 
18 | CC1(C)Oc2c(ncnc2Nc2ccc(NC(=O)Nc3cc(C(C)(C)C)nn3C(C)(C)C)cc2)NC1=O | > 10000 | 1400 | 6200 | 
19 | CC1(C)Oc2c(ncnc2Nc2ccc(NC(=O)Nc3cccc(F)c3)cc2)NC1=O |  | > 10000 | > 10000 | 
20 | Cc1cc(NC(=O)Nc2cc(C(C)(C)C)nn2-c2ccc(C(F)(F)F)cc2)ccc1Nc1ncnc2c1OC(C)(C)C(=O)N2 | 86 |  |  | IC50 (BaF3 [4]): 2 nM; IC50 (BaF3 [5]): 2 nM; IC50 (BaF3 [6]): 10 nM; IC50 (BaF3 [7]): 13 nM; IC50 at 3 days (in vitro): > 10000 nM; IC50 (BaF3 [8]): 3 nM; IC50 (BaF3 [9]): 2 nM; IC50 (cells): 13 nM; IC50 (BaF3 [10]): 86 nM
21 | CC1(C)Oc2c(ncnc2Nc2ccc(NC(=O)NC34C[C@H]5C[C@@H](C3)C[C@@H](C4)C5)cc2)NC1=O |  | > 10000 | > 10000 | 

Row | Structure (SMILES) | IC50 (BaF3 [1]) [nM] | IC50 [2] [nM] | IC50 [3] [nM] | further results
22 | CC1(C)Oc2c(ncnc2Nc2ccc(NC(=O)Nc3ccc(Cl)c(C(F)(F)F)c3)cc2)NC1=O | 1350 | 381 | 211 | 
23 | COc1cc(NC(=O)Nc2cc(C(C)(C)C)nn2-c2ccccc2)ccc1Nc1ncnc2c1OC(C)(C)C(=O)N2 | 9290 | 123 | 50 | 
24 | Cc1cc(NC(=O)Nc2cc(C(C)(C)C)nn2-c2ccccc2)ccc1Nc1ncnc2c1OC(C)(C)C(=O)N2 | 51 |  | 13 | IC50 (BaF3 [11]): 39 nM; IC50 (BaF3 [4]): 5 nM; IC50 (BaF3 [5]): 15 nM; IC50 (BaF3 [6]): 34 nM; IC50 (BaF3 [7]): 19 nM; IC50 at 3 days (in vitro): > 10000 nM; IC50 (BaF3 [9]): 2 nM; IC50 (BaF3 [12]): 151 nM; IC50 (cells): 21 nM; IC50 (BaF3 [10]): 51 nM
25 | CC1(C)Oc2c(ncnc2Nc2ccc(NC(=O)Nc3cc(C(C)(C)C)on3)cc2)NC1=O | 3760 | 33 | 156 | 
26 | Cc1ccc(-n2nc(C(C)(C)C)cc2NC(=O)Nc2ccc(Nc3ncnc4c3OC(C)(C)C(=O)N4)c(C)c2)cc1 | 58 | 18 | 22 | IC50 (BaF3 [11]): 13 nM; IC50 (BaF3 [4]): 5 nM; IC50 (BaF3 [5]): 1 nM; IC50 (BaF3 [6]): 4 nM; IC50 (BaF3 [7]): 4 nM; IC50 at 3 days (in vitro): 2990 nM; IC50 (BaF3 [8]): 2 nM; IC50 (BaF3 [9]): 1 nM; IC50 (BaF3 [12]): 31 nM; IC50 (cells): 6 nM; IC50 (BaF3 [10]): 58 nM
27 | CC1(C)Oc2c(ncnc2Nc2ccc(NC(=O)Nc3cc(C(C)(C)C)nn3-c3ccccc3)c(C(F)(F)F)c2)NC1=O | 3900 | 182 | 149 | 
28 | Cc1cc(NC(=O)Nc2cc(C3CC3)nn2-c2ccccc2)ccc1Nc1ncnc2c1OC(C)(C)C(=O)N2 | 2010 | 10 | 23 | 
29 | Cc1cc(NC(=O)Nc2cc(C(C)(C)C)nn2-c2ccc(F)cc2)ccc1Nc1ncnc2c1OC(C)(C)C(=O)N2 | 245 | 12 | 30 | 
30 | Cn1nc(C(C)(C)C)cc1NC(=O)Nc1ccc(Nc2ncnc3c2OC(C)(C)C(=O)N3)cc1 |  | > 10000 | > 10000 | 
31 | Cc1ccc(NC(=O)Nc2ccc(Nc3ncnc4c3OC(C)(C)C(=O)N4)cc2)cc1 |  | > 10000 | > 10000 | 
32 | CC1(C)Oc2c(ncnc2Nc2ccc(NC(=O)Nc3cc(C(C)(C)C)nn3C3CCCCC3)cc2)NC1=O | 1560 | 228 | 344 | 
33 | CC1(C)Oc2c(ncnc2Nc2ccc(NC(=O)Nc3cc(C(C)(C)C)nn3-c3ccccc3)c3ccccc23)NC1=O | 382 | 88 | 87 | 
34 | Cc1cc(Nc2ncnc3c2OC(C)(C)C(=O)N3)ccc1NC(=O)Nc1cc(C(C)(C)C)nn1-c1ccccc1 | 6040 | 88 | 127 | 
35 | Cc1cc(NC(=O)Nc2cc(C(C)(C)C)nn2-c2ccc(F)c(F)c2)ccc1Nc1ncnc2c1OC(C)(C)C(=O)N2 | 34 | 19 | 9 | IC50 (BaF3 [11]): 25 nM; IC50 (BaF3 [4]): 5 nM; IC50 (BaF3 [5]): 2 nM; IC50 (BaF3 [6]): 14 nM; IC50 (BaF3 [7]): 10 nM; IC50 at 3 days (in vitro): > 10000 nM; IC50 (BaF3 [8]): 2 nM; IC50 (BaF3 [9]): 1 nM; IC50 (BaF3 [12]): 82 nM; IC50 (cells): 8 nM; IC50 (BaF3 [10]): 34 nM
36 | CC1(C)Oc2c(ncnc2Nc2ccc(NC(=O)Nc3cc(C(C)(C)C)nn3-c3ccccc3)cc2)NC1=O | 396 | 21 | 35 | 
37 | CC1(C)Oc2c(ncnc2Nc2ccc(NC(=O)Nc3cc(C(C)(C)C)nn3-c3ccccc3)c(F)c2)NC1=O | 978 | 38 | 81 | 
38 | Cc1cc(NC(=O)Nc2cc(C(C)(C)C)nn2-c2cccnc2)ccc1Nc1ncnc2c1OC(C)(C)C(=O)N2 | 709 | 22 | 14 | 
39 | Cc1cc(NC(=O)Nc2cc(-c3ccccc3)nn2-c2ccccc2)ccc1Nc1ncnc2c1OC(C)(C)C(=O)N2 | 1900 | 171 | 38 | 
40 | CC1(C)Oc2c(ncnc2Nc2ccc(NC(=O)NC3CCCCC3)cc2)NC1=O |  | > 10000 | > 10000 | 
41 | O=C(Nc1cnn2ccc(N3CCC[C@@H]3c3cc(F)ccc3F)nc12)N1CC[C@H](O)C1 [LAROTRECTINIB] |  |  |  | IC50 (BaF3 [11]): 59 nM; IC50 (BaF3 [4]): 1 nM; IC50 (BaF3 [5]): 11 nM; IC50 (BaF3 [6]): 321 nM; IC50 (BaF3 [7]): 547 nM; IC50 at 3 days (in vitro): 3570 nM; IC50 (BaF3 [8]): 586 nM; IC50 (BaF3 [9]): 1260 nM; IC50 (BaF3 [12]): 4060 nM; IC50 (cells): 11 nM; IC50 (BaF3 [10]): 1490 nM
